# Key:
# [1] = tested on: anti-Neu5Gc antibodies in human sera; assay: Inhibition of human serum anti-Neu5Gc antibody ELISA reactivity to Neu5Gc-PAA; format: binding; conditions: free sugar at 2 mM
# Protocol: Detection of Anti-Neu5Gc and anti-α-Gal specific antibodies in human sera—Microtiter (Costar, Corning, N.Y.) plate wells were coated with Neu5Ac-polyacrylamide(PAA), Neu5Gc-PAA, or Galα1-3GalBeta1-4GlcNAc-PAA (Glycotech, Rockville, Md.) at a concentration of 500 ng/well, in 50 mM sodium carbonate-bicarbonate buffer pH 9.5, at 4° C. overnight. After washing with TBS, pH 7.5 and blocking with TBST for 2 h at RT, triplicate wells were incubated with 1:50 dilutions of serum in TBST at RT for 4 h. Wells were washed 5 times with TBS, and incubated with HRP-conjugated mouse anti-human IgA (Calbiochem, San Diego, Calif.), anti-human IgG (Jackson ImmunoResearch, West Grove, Pa.) or anti-human IgM (KPL, Gaithersburg, Md.) each diluted in TBST at 1:20,000, at RT for 1.5 hour. The IgG anti-Neu5Gc and anti-α-Gal antibodies were quantitated using a standard curve of normal human IgG coated to the wells under the same general conditions.
# Anti-Neu5Gc antibodies of the IgA, IgM and IgG classes were detected in the sera of all three subjects who ingested Neu5Gc at baseline, but no increases occurred after Neu5Gc ingestion (not shown). […] Specificity was confirmed by showing that anti-Neu5Gc reactivity was blocked by chimpanzee serum in a concentration-dependent manner, but not by equivalent amounts of a Neu5Gc antibody-negative human serum (FIG. 4B). […]
# [2] = Human Neu5Gc ingestion study; format: in vivo
# Protocol: Human Neu5Gc Ingestion Study—Human subjects were enlisted in the study, and were told to avoid animal foods for 2 days, all medications for 1 day, use a lanolin-free (Neu5Gc-free) shampoo for 2 days, and ingest only fruit juice on the morning of study. Subjects then drank 150 mg of porcine submaxillary mucin Sias (see above) dissolved in 100 ml water. For the next 6 h they drank a 1:1 mixture of fruit juice and soymilk (Sia free) at ˜2 ml/Kg/hr. Serum, urine and saliva samples were obtained at multiple time points. Human saliva was collected by chewing parafilm, after washing the mouth out well with water. Urine volume and pH were recorded prior to centrifugation at 1000 g for 10 min, and collection of the supernatant. All samples were stored frozen at −20° C. Head hairs (˜20) and/or facial hair trimmings (from men) were collected prior to, and on several days after Neu5Gc ingestion.
# Purification and analysis of Sialic Acids and N-acylmannosamines from Human Samples—Human salivary mucin was precipitated by adjusting to pH 3 with 100 mM acetic acid, stirring at 4° C. overnight, collected at 14,000 g for 10 min, and washed twice with 1 ml of ice-cold PBS. Human hair clippings were washed in 100 mM ice-cold acetic acid for two h and crushed in a clean ceramic mortar. Bound Sias from saliva, hair or serum were released with mild acid as above, filtered through Microcon 10 filters (Millipore, Bedford, Mass.), dried down, reconstituted in water and analyzed for Sia content by DMB-HPLC.
# Five ml urine aliquots were diluted 5-fold and loaded onto 10 ml columns of AG50W-X2 resin (H^+ form, BioRad, Richmond, Calif.) equilibrated in water. The run-through and washes (2×10 ml of water) were pooled and loaded onto 10 ml columns of AG1X8 resin (Formate form, BioRad) equilibrated in water. The combined run-through and washes (2×10 ml of water) were lyophilized. After washing with 5 volumes of 10 mM formic acid, free Sias were eluted with 5 volumes of 1M formic acid, diluted two-fold with water, and lyophilized.
# Free Sias were purified from urine samples, and analyzed for Neu5Gc content by DMB-HPLC. Since overlapping fluorescent peaks prevented definitive identification and quantification, HPLC fractions eluting at the time expected for DMB-Neu5Gc were collected and subjected to MS, confirming an increase in ion peaks at m/z 424 and m/z 442. The sum of ion intensities of m/z 424 and m/z 442 at each time point provided an estimate of Neu5Gc quantity. Ingested Neu5Gc was rapidly absorbed and excreted into the urine (FIG. 3A). About 3-6% of the ingested dose was excreted within 4-6 h, with the peak excretion rate at 2-3 h and a return to baseline levels within 24 h.
# Caco-2 cells = assay: Feeding of human epithelial cells with Neu5Gc; format: cell-based; conditions: Caco-2, 3 mM Neu5Gc for 3 days, HPLC
# Protocol: Feeding of Human Epithelial Cells with Neu5Gc—Caco-2 cells (human epithelial cells isolated from a primary colon carcinoma, ATCC, Manassas, Va.), were propagated in α-MEM (Gibco, Invitrogen Corporation, San Diego, Calif.) supplemented with 20% heat inactivated Fetal Calf Serum, at 37° C., 5% CO2. Prior to feeding, the cells were split and cultured for 4 days in α-MEM supplemented with 20% heat inactivated premium human serum type AB (Irvine scientific, Santa Ana, Calif.). Cells were then cultured in the presence of various concentrations of free Neu5Gc (0, 0.3, 1 and 3 mM, respectively) for 3 days at 37° C. Cells were then washed with cold PBS, scraped into 20 mM sodium phosphate pH 7.5 and sonicated. The protein extract was quantified and analysed by Western blot using the anti-Neu5Gc antibody.
# Although human cells cultured in fetal calf serum express cell surface Neu5Gc in small amounts (Muchmore, et al., supra, and Oetke, et al., supra), this could represent either metabolic incorporation or non-specific absorption. Human epithelial cells were cultured in human serum until no traces of Neu5Gc derived from fetal calf serum could be detected by HPLC (typically ˜4 days). Culture was then continued for 3 days in the absence or presence of varying amounts of free Neu5Gc. […]
# human cells = assay: Human cells fed with free Neu5Gc, incorporation into endogenous glycoproteins; format: cell-based
# Source text: It is therefore reasoned that the Neu5Gc in normal humans originates from exogenous sources. […] Likewise, human cells cultured in FCS incorporated Neu5Gc from the serum glycoproteins into the native glycoconjugates of the cells (Muchmore, E. A., Diaz, S, and Varki, A. (1998). Am J Phys Anthropol 107:187-198; and Tangvoranuntakul, et al., supra.
SMILES,inhibition of anti-Neu5Gc reactivity of human sera [1],"subjects with increase of Neu5Gc in salivary mucins ([2]; 2 days after ingestion, MS)",time of decline of salivary mucin Neu5Gc to baseline levels ([2]; after ingestion),Neu5Gc in serum samples ([2]; any time points after ingestion),time of peak urinary excretion rate ([2]; oral 150 mg),time of return of urinary excretion to baseline levels ([2]; oral 150 mg),"reactions to Neu5Gc ingestion ([2]; oral 150 mg, human subjects)","share of the ingested dose excreted into the urine ([2]; within 4-6 h after oral 150 mg porcine submaxillary mucin Sias, MS estimate)","highest level of incorporation of Neu5Gc into the cells, of total Sia (Caco-2 cells)",level of Neu5Gc incorporated into endogenous glycoproteins (human cells)
"CC(=O)N[C@H]1[C@H]([C@H](O)[C@H](O)CO)OC(O)(C(=O)O)C[C@@H]1O (some centres unmarked) [Neu5Ac, N-acetylneuraminic acid, reference compound]",not,–,–,–,–,–,–,–,–,–
"O=C(CO)N[C@H]1[C@H]([C@H](O)[C@H](O)CO)OC(O)(C(=O)O)C[C@@H]1O (some centres unmarked) [Neu5Gc, N-glycolylneuraminic acid]",> 70%,2 of 3,≤ 4 days,not detected,2 to 3 h,≤ 24 h,no immediate reactions,3-6%,85%,> 50%

# From US8084219B2, “Methods for detecting and analyzing N-glycolylneuraminic acid (Neu5Gc) in biological materials” (The Regents of the University of California, priority 2003, dated 2011)
